Values joined by “and” are separate entries in the source; they are usually repeats but may differ in a detail not shown here. Equal values may be shown once.
Columns and labels:
tau [1] = test: ^3H-THK5117 and ^3H-THK5351 autoradiography of large frozen postmortem brain sections, total binding; design: species or system human; settings: 3 nM tracer
Experimental: Postmortem frozen left brain hemispheres from three patients with AD were obtained from the Neuropathology of Dementia Laboratory (Indiana University School of Medicine, Indianapolis, IN, USA) and used for the autoradiography experiment. The frozen sections were allowed to reach room temperature, preincubated for 10 minutes with PBS + 0.1% BSA (pH 7.4), and then incubated for 1 h at room temperature with ^3H-THK5351 (3 nM) or ^3H-THK5117 (3 nM). The sections were rinsed three times in cold buffer for 5 minutes, followed by a quick dip in cold distilled water. Nonspecific binding was determined using 10 μM unlabeled THK5351 or 10 μM unlabeled THK5117. […]
For all the autoradiography studies, the regions of interest were drawn manually on the autoradiogram using multigauge software and were used for the semiquantitative analyses. Photostimulated luminescence per square millimeter (PSL/mm^2) was transformed to picomoles per cubic millimeter using a transformation factor that took into account the resolution of the image, the pixel value for the concentration of ligand, and the thickness of the sections: (PSL/mm^2 value)/([pixel value per pmol] × [(resolution/1000)^2] × [cryosection thickness]/1000).

tau [2] = test: Regional binding distribution of ^3H-THK5117 and ^3H-THK5351 in brain homogenate; design: species or system human; settings: temporal cortex homogenate, ^3H-THK5117 3 nM vs ^3H-THK5351 1.5 nM, p < 0.0001
Experimental: (§1) Postmortem brain tissues from three patients with AD and three healthy control subjects were used for the in vitro binding assays. All the brain tissue, which came from the Netherlands Brain Bank, had been homogenized in PBS containing a protease/phosphatase inhibitor (see Table 1).
The regional binding distribution comparison between ^3H-THK5351 and ^3H-THK5117 was carried out in postmortem frontal and temporal cortical and hippocampal tissue from the brains of three patients with AD and three control subjects. The protocol was similar for ^3H-THK5351 (1.5 nM) and ^3H-THK5117 (3 nM): 0.1 mg of tissue in PBS + 0.1% bovine serum albumin (BSA) to a final volume of 500 μl, followed by incubation for 2 h at room temperature. The nonspecific binding was determined using 1 μM unlabeled THK5351 or unlabeled THK5117. After 2-h incubation at room temperature, the competition binding assay was stopped using filtration through glass fiber filters, and the radiation was then quantified using the scintillation counter.

tau [3] = biological target: tau (Homo sapiens, UniProt P10636); test: Competition binding assay with ^3H-THK5351 in postmortem hippocampus brain homogenates; settings: vs ^3H-THK5351 1.5 nM, AD hippocampus homogenate; read-out: Ki2 (high-affinity site)
Experimental: as §1
After 2-h incubation at room temperature, the binding assay was terminated by filtration through glass fiber filters presoaked for at least 3 h in 0.3% polyethylenimine. To do so, the filters were rinsed and filtered three times using cold binding buffer, and then the radiation on the filter was quantified using a Beckman Coulter scintillation counter. The data for the regional binding distribution studies were analyzed using Prism version 7.0 software for Mac (GraphPad Software Inc., La Jolla, CA, USA), and two-way analysis of variance with multiple comparisons was performed.

[4] = biological target: T1, monoamine oxidase B (MAO-B) (Homo sapiens, UniProt P27338); test: Competition binding with ^3H-deprenyl in hippocampus and putamen brain homogenates (off-target binding); settings: vs ^3H-deprenyl 10 nM, two AD cases
T1 construct: postmortem brain homogenates from the hippocampus and putamen (0.2 mg/ml tissue) of two patients with AD; tissue Netherlands Brain Bank; host or cells: postmortem human AD hippocampus and putamen homogenate
T1 sequence (P27338 1-520): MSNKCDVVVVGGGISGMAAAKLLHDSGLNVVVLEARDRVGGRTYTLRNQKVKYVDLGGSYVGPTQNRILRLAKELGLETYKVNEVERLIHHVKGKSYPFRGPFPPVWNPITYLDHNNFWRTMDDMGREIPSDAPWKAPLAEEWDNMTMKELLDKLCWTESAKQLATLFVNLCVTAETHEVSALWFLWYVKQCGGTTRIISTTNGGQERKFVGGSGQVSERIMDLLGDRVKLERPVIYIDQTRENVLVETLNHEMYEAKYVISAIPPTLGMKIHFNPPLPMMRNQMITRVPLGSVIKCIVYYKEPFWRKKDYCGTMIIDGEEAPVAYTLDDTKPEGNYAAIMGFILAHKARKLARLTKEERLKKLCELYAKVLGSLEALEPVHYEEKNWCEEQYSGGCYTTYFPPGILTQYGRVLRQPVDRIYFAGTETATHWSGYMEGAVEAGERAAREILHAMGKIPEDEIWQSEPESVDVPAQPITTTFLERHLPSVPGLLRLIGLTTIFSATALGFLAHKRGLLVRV
Experimental: Competition binding studies using postmortem brain homogenates from the hippocampus and putamen (0.2 mg/ml tissue) of two patients with AD were performed using ^3H-deprenyl (10 nM in Na-K phosphate buffer, pH 7.4) and increasing concentrations of unlabeled THK5117 (10^−14 to 10^−5 M) and T807 (10^−14 to 10^−5 M) to determine the off-target binding of the tau PET tracers. After 2-h incubation at room temperature, the binding assay was terminated by filtration through glass fiber filters presoaked for at least 3 h in 0.3% polyethylenimine. To do so, the filters were rinsed and filtered three times using cold binding buffer, and then the radiation on the filter was quantified using a Beckman Coulter scintillation counter. The data from all the binding studies were analyzed using Prism version 7.0 software.

MAO-B = system: MAO-B; design: method as in PMID 28374768; settings: cited from earlier work

Chain of tau (Homo sapiens, UniProt P10636) (P10636 623-695 limits assumed): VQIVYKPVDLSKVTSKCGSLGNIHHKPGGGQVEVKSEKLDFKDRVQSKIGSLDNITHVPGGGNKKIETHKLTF

[3H]CNc1ccc(-c2ccc3cc(OCC(O)CF)ccc3n2)cc1 (stereo not shown) [^3H-THK5117, 1-Fluoro-3-((2-(4-([^3H]methylamino)phenyl)quinolin-6-yl)oxy)propan-2-ol]
Total Binding (tau [1]; AD1, Frontal cortex): 312 fmol/mg
Total Binding (tau [1]; AD1, Temporal cortex): 261 fmol/mg
extent of binding compared with ^3H-THK5351 (tau [2]): more extensive binding of ^3H-THK5117 than of ^3H-THK5351

CNc1ccc(-c2ccc3cc(OCC(O)CF)ccc3n2)cc1 (stereo not shown) [THK5117]
Ki (tau [3]): 20 nM
Ki ([4]; hippocampus homogenate): 286 nM and > 200 nM
Ki ([4]; putamen homogenate): 148 nM and ~150 nM
affinity between MAO-B and THK5117 (MAO-B): around 300 nM

Reference: PMC5725799, “Comparative binding properties of the tau PET tracers THK5117, THK5351, PBB3, and T807 in postmortem Alzheimer brains” (Alzheimer's Research & Therapy, 2017)
